Data taken from patent US4029801A, “Pharmaceutical compositions and methods of treating hypertension” (priority 1970, dated 1977).

How the values were obtained:
[1] = system: blood pressure; experiment: Tests for action on the cardiovascular system: hypotensive activity (activity in method 1, rats or cats, or method 2), reported in words; format: in vivo, rat, cat; settings: standard test procedure, result in words
Description: Tests for action on the cardiovascular system were conducted according to one of the following procedures:
Cats were anaesthetised with pentobarbitone sodium (30 mg/kg) and the cephalic vein, femoral and carotid arteries and trachea were cannulated. The carotid cannula was introduced into the left ventricle and the femoral cannula into the aorta. Blood pressure and heart rate were recorded from the aortic cannula and left ventricular pressure from the carotid cannula. The test compunds were administered intravenously (0.1-25.6 mg/kg).
Method 2 (hypertensive rats)
Male or female rats are rendered hypertensive by applying a figure of 8 ligature around one kidney and contralateral nephrectomy. Blood pressure stabilises at a hypertensive level after 6 weeks. Systolic pressure is measured indirectly using a Decker Caudal Plethysmograph A control group of rats is run with each group treated with drug. Each group usually consists of six rats. Drugs are usually administered by the IP or oral routes. Pressures are read prior to drug administration and at two and 24 hours thereafter.

[2] = system: blood pressure and heart rate; experiment: Method 1 (rat): hypotensive activity in anaesthetised rats, i.v.; settings: Rattus norvegicus, iv, 0.25 h, read-out: Hypotensive Activity
Description: Rats were anaesthetised with pentobarbitone sodium (60 mg/kg) and the jugular vein, trachea and carotid artery were cannulated. […] A decrease in heart rate of more than 30% from control values was considered to be significant bradycardia.

Structure (SMILES): O=C(NC1CCN(CC(O)c2ccc[nH]2)CC1)c1ccccc1 (stereo not shown) [Example 98, 1-[2-Hydroxy-2-(2-pyrrol-2-yl)ethyl]-4-benzamidopiperidine]
- hypotensive activity [1]: hypotensive activity

Structure (SMILES): O=C(NC1CCN(CCC=C(c2ccccc2)c2ccccc2)CC1)c1ccccc1 [Example 89, 4-(4-Benzamidopiperid-1-yl)-1,1-diphenylbut-l-ene]
- hypotensive activity [1]: hypotensive activity
- minimal effective dose [2]: 6.4 to 12.8 mg/kg

Structure (SMILES): O=C(CN1CCC(NC(=O)c2ccccc2)CC1)c1ccc2c(c1)CCCC2 [Example 56, 1-[2-(1,2,3,4-Tetrahydro-6-napthyl)-2-oxoethyl]-4-benzamidopiperidine]
- hypotensive activity [1]: hypotensive activity
- minimal effective dose [2]: 6.4 to 12.8 mg/kg

Structure (SMILES): O=C(CCCN1CCC(NC(=O)c2ccccc2)CC1)Nc1ccccc1 [Example 50, N-Phenyl-4-(p-benzamidopiperid-1-yl)butyramide]
- hypotensive activity [1]: hypotensive activity
- minimal effective dose [2]: 6.4 to 12.8 mg/kg

Structure (SMILES): O=C(CCCN1CCC(NC(=O)c2ccccc2)CC1)c1ccc(Br)cc1 [Example 71, 4-Benzamido-1-[4-(4-bromophenyl)-4-oxobutyl]piperidine]
- minimal effective dose [2]: 25.6 mg/kg

Structure (SMILES): COc1ccc(C(=O)CCCN2CCC(NC(=O)c3ccccc3)CC2)cc1 [Example 77, 4-Benzamido-1-[4-(4-methoxyphenyl)-4-oxobutyl]piperidine]
- minimal effective dose [2]: 6.4 to 12.8 mg/kg

Structure (SMILES): O=C(NC1CCN(CCCOc2cccc3ccccc23)CC1)c1ccccc1 [Example 55, 1-[3-(1-Naphthyloxy)-propyl]-4-benzamidopiperidine]
- hypotensive activity [1]: marked hypotensive activity
- minimal effective dose [2]: 1.6 to 3.2 mg/kg

Structure (SMILES): O=C(NC1CCN(CCCC(O)c2ccccc2)CC1)c1ccccc1 (stereo not shown) [Example 53, 4-Benzamido-1-(4-phenyl-4-hydroxybutyl)piperidine]
- hypotensive activity [1]: hypotensive activity
- minimal effective dose [2]: 6.4 to 12.8 mg/kg

Structure (SMILES): O=C(NC1CCN(CCC=C(c2ccc(F)cc2)c2ccc(F)cc2)CC1)c1ccccc1 [Example 87, 4-(4-Benzamidopiperid-1-yl)-1,1-(di-p-fluorophenyl)but-l-ene]
- hypotensive activity [1]: hypotensive activity
- minimal effective dose [2]: 25.6 mg/kg

Structure (SMILES): O=C(NC1CCN(CC(O)c2ccc3c(c2)CCCC3)CC1)c1ccccc1 (stereo not shown) [Example 57, 1-[2-(1,2,3,4-Tetrahydro-6-naphthyl)-2-hydroxyethyl]-4-benzamido-piperidine]
- hypotensive activity [1]: hypotensive activity
- minimal effective dose [2]: 1.6 to 3.2 mg/kg

Structure (SMILES): O=C(NC1=CCN(CCc2ccccc2)CC1)c1ccccc1 [Example 26, 1-Phenethyl-4-benzamido-1,2,5,6-tetrahydropyridine]
- hypotensive activity [1]: hypotensive activity

Structure (SMILES): O=C(NC1CCN(CCc2ccccc2[N+](=O)[O-])CC1)c1ccccc1 [Example 33, 1-[2-(o-Nitrophenyl)ethyl]-4-benzamido-piperidine]
- hypotensive activity [1]: hypotensive activity
- minimal effective dose [2]: 6.4 to 12.8 mg/kg

Structure (SMILES): O=C(NC1CCN(CCCC(O)c2ccccc2)CC1)c1ccccc1 (single isomer, unassigned; (+)) [Example 86, (+)-4-Benzamido-1-(4-phenyl-4-hydroxybutyl)piperidine]
- hypotensive activity [1]: hypotensive activity
- minimal effective dose [2]: 1.6 to 3.2 mg/kg

Structure (SMILES): O=C(NC1CCN(CCCC(c2ccccc2)c2ccccc2)CC1)c1ccccc1 [Example 90, 4-(4-Benzamidopiperid-1-yl)-1,1-diphenyl butane]
- hypotensive activity [1]: hypotensive activity
- minimal effective dose [2]: 6.4 to 12.8 mg/kg

Structure (SMILES): CC(C(=O)c1ccc(O)cc1)N1CCC(NC(=O)c2ccccc2)CC1 (stereo not shown) [Example 64, 1-[1-Methyl-2-(4-hydroxy)phenyl-2-oxoethyl]-4-benzamidopiperidine]
- minimal effective dose [2]: < 30 mg/kg

Structure (SMILES): Cl.O=C(NC1CCN(CCc2ccccc2)CC1)c1ccccc1 [Example 59, 1-Phenethyl-4-benzamidopiperidine hydrochloride]
- hypotensive activity [1]: hypotensive activity

Structure (SMILES): O=C(CN1CCC(NC(=O)c2ccccc2)CC1)c1ccc(O)c(O)c1 [Example 11, 1-[2-(3,4-Dihydroxyphenyl)-2-oxoethyl]-4-benzamidopiperidine]
- hypotensive activity [1]: marked hypotensive activity
- minimal effective dose [2]: 1.6 to 3.2 mg/kg

Structure (SMILES): O=C(NC1CCN(CCc2ccc3ccccc3n2)CC1)c1ccccc1 [Example 95, 1-[2-(2-Quinolyl)ethyl]-4-benzamidopiperidine]
- hypotensive activity [1]: marked hypotensive activity

Structure (SMILES): O=C(NC1CCN(CCc2ccc3ccccc3c2)CC1)C1CCCCC1 [Example 84]
- hypotensive activity [1]: hypotensive activity
- minimal effective dose [2]: 6.4 to 12.8 mg/kg

Structure (SMILES): O=C(CCN1CCC(NC(=O)c2ccccc2)CC1)c1ccc2c(c1)OCCO2 [Example 91, 1-[3-(1,4-Benzodioxan-6-yl)-3-oxopropyl]-4-benzamidopiperidine]
- hypotensive activity [1]: hypotensive activity
- minimal effective dose [2]: 25.6 mg/kg

Structure (SMILES): CC(Cc1ccccc1)N1CCC(NC(=O)c2ccccc2)CC1 (stereo not shown) [Example 78, 4-Benzamido-1-(1-phenylprop-2-yl)piperidine]
- hypotensive activity [1]: marked hypotensive activity
- minimal effective dose [2]: 6.4 to 12.8 mg/kg

Structure (SMILES): CC(C(O)c1ccc(O)cc1)N1CCC(NC(=O)c2ccccc2)CC1 (stereo not shown) [Example 65, 1-[1-Methyl-2-(4-hydroxy)phenyl-2-hydroxyethyl]-4-benzamidopiperidine]
- hypotensive activity [1]: hypotensive activity
- minimal effective dose [2]: 25.6 mg/kg

Structure (SMILES): COc1ccc(CCN2CCC(NC(=O)c3ccccc3)CC2)cc1OC [Example 5, 1-[2-(3,4-Dimethoxyphenyl)ethyl]-4-benzamidopiperidine]
- minimal effective dose [2]: < 30 mg/kg

Structure (SMILES): Cc1cc2c(cc1C(=O)CN1CCC(NC(=O)c3ccccc3)CC1)C(C)(C)CC(C)C2(C)C (stereo not shown) [Example 66, 7-(4-Benzamidopiperidinoacetyl)-1,1,3,4,4,6-hexamethyl-1,2,3,4-tetrahydronaphthalene]
- hypotensive activity [1]: hypotensive activity
- minimal effective dose [2]: 6.4 to 12.8 mg/kg

Structure (SMILES): O=C(NC1CCN(CCCC(O)c2ccc3ccccc3c2)CC1)c1ccccc1 (stereo not shown) [Example 83, 1-[4-(2'-Naphthyl)-4-hydroxybutyl]-4-benzamidpiperidine]
- hypotensive activity [1]: hypotensive activity
- minimal effective dose [2]: 1.6 to 3.2 mg/kg

Structure (SMILES): COc1ccc(CCN2CCC(NC(=O)c3ccccc3)CC2)cc1 [Example 49, 4-Benzamido-1-[2-(p-methoxyphenyl)ethyl]piperidine]
- hypotensive activity [1]: hypotensive activity
- minimal effective dose [2]: 6.4 to 12.8 mg/kg

Structure (SMILES): O=C(NC1CCN(Cc2ccccc2)CC1)c1ccccc1 [Example 30, 1-Benzyl-4-benzamidopiperidine]
- minimal effective dose [2]: 25.6 mg/kg

Structure (SMILES): Cc1ccc(C(=O)NC2CCN(Cc3ccccc3)CC2)cc1 [Example 32, 1-Benzyl-4-(p-methylbenzamido)piperidine]
- minimal effective dose [2]: < 30 mg/kg

Structure (SMILES): Cc1cc2c(cc1C(O)CN1CCC(NC(=O)c3ccccc3)CC1)C(C)(C)CC(C)C2(C)C (stereo not shown) [Example 67, 7-[2-(4-Benzamidopiperid-1-yl)-1-hydroxyethyl]-1,1,3,4,4,6-Hexamethyl-1,2,3,4-tetrahydronaphthalene]
- hypotensive activity [1]: hypotensive activity

Structure (SMILES): COc1cc(CCN2CCC(NC(=O)c3ccccc3)CC2)cc(OC)c1OC [Example 8, 1-[2-(3,4,5-Trimethoxyphenyl)ethyl]-4-benzamidopiperidine]
- minimal effective dose [2]: 6.4 to 12.8 mg/kg

Structure (SMILES): C[N+]1(CCCC(=O)c2ccccc2)CCC(NC(=O)c2ccccc2)CC1 (stereo not shown) [Example 82, 4-Benzamido-1-methyl-1-(4-phenyl-4-oxobutyl)piperidinium iodide]
- hypotensive activity [1]: hypotensive activity
